Measurements taken from publication PMC11912270, “Synthesis and SAR Studies of Acyl-Thiourea Platinum(II) Complexes Yield Analogs with Dual-Stage Antiplasmodium Activity” (ACS Medicinal Chemistry Letters, 2025).
Where “and” joins values, the source holds several entries; their conditions need not be identical. Equal entries are not always repeated.

Legend:
[1] = Kinetic solubility by HPLC (pH 6.5); settings: pH 6.5; for Aqueous solubility pH 6.5: kinetic, HPLC
Procedure: 1.7. Kinetic solubility by HPLC (pH 6.5)
Solubility was measured at pH 6.5 using an adapted miniaturized shake-flask method, in 96-well plate format.4,5 Briefly, 4 µL of a 10 mM stock in DMSO was added to a 96-well plate and evaporated using a GeneVac system. Phosphate buffer pH 6.5 was then added to the wells […]
At the end of this incubation, the […]
in the analysis plate. Analysis was then performed by HPLC-DAD and the solubility of each sample was determined from the corresponding calibration curve. […]

Cyclic voltammetry = type: physicochemical; settings: 0.1 V/s; for Epa1: anodic peak potential; for Epc1: cathodic peak potential
Description: It is known that Fe^2+/Fe^3+ redox chemistry has an important role in the bioactivity of ferrocene derivatives.[33] The production of reactive oxygen species (ROS) is one of the modes of action of ferroquine and other ferrocene derivatives[34] and is linked to the correlation between their bioactivity and electrochemical behavior. We determined whether a similar correlation could be made for the mixed-ligand platinum(II) complexes reported herein given that metal centers have the potential to be oxidized and reduced. The electrochemistry of the complexes was studied using cyclic voltammetry (CV), which uses a triangular potential waveform. The CV experiments were performed in either dry MeOH or DMF containing tetrabutylammonium chloride (TBACl) as the supporting electrolyte. The working electrode was glassy carbon with a platinum wire as the counter electrode and Ag/AgCl as the reference. The anodic (Epa) and cathodic (Epc) peak potentials at 0.1 V/s and half-wave potentials (E1/2) were measured (Table 3). All of the tested complexes undergo reversible one-electron Pt^2+/Pt^+ reductions (Figures S38–S46). Complexes C2, C4, and C8 undergo a second nonreversible reduction (Epc2), which is most likely ligand-based and linked to reductions of the substituent on the bpy. Looking at SAR2, the more electron-withdrawing the substituent, the […] the E1/2 (V vs Fe/Fe^+) value was. This trend was expected, as a more electron-withdrawing substituent reduces the electron density around the metal center, making it easier for the metal to be reduced from Pt^2+ to Pt^+. […] This is also the case for other bpy-containing platinum(II) complexes that only undergo reductions.[35],[36] […]
For the cyclic voltammetry experiments a solution of the test compound (1 x 10-3) in DMSO (3 mL) is added to the electrolyte solution (0.1 M tetrabutylammonium chloride (TBACl) in DMSO). The electrochemical measurements were obtained using a Basi Epsilon Eclipse Electrochemical Analyzer Potentiostat and the CV graphs were generated using Excel. The working electrode was glassy carbon (GC) with platinum wire as the counter electrode (CE) and Ag/AgCl as the reference. […]

PfNF54 ABS parasites = assay: SYBR Green I-based proliferative assay, PfNF54 ABS parasites; type: cell-based, Plasmodium falciparum; settings: for IC50: ABS, SYBR Green I, 96 h, mean ± S.E., N = 3 (no S.E.: N = 1)
Procedure: (§1) The parasites were incubated under drug […]
(§2) incubation, parasite survival was determined by adding equal volumes of parasite suspension (100 µL) and SYBR Green I lysis buffer (0.2% µL/mL of 10 000x SYBR Green I, 20 mM Tris-HCl, pH 7.5, 5 mM EDTA, 0.008% saponin (w/v) and 0.08% Triton x-100). This was incubated for 1 hour at room temperature in the dark. […]

[2] = system: Chinese hamster ovary (CHO) cell line; assay: MTT cytotoxicity assay; type: cell-based; settings: cytotoxicity, MTT, 48 h; N, n = 1, 3; read-out: CHO IC50
Procedure: 1.6.In vitro cytotoxicity assay
A 3-(4,5-dimethylthiazol-2-yl)-2,5-diphenyltetrazoliumbromide (MTT) assay was used to screen the metal complexes against the mammalian Chinese hamster ovarian (CHO) cell line.
A stock solution of each compound (2 mg/mL) in DMSO was prepared and kept at -20 °C until needed. Emetine was used as a reference drug. A starting concentration of 100 µg/mL was used, and serially diluted ten-fold using a complete medium to give the lowest concentration of 0.001 µg/mL (6 dilutions). The plates containing the CHO cells under drug pressure were […]
Plates containing the drug and cell suspension were developed by adding 25 μL of sterile MTT (Thermo Fisher Scientific) (25 µL) to each well, followed by 4 h […]
of incubation at room temperature in the dark. The plates were then centrifuged, and the supernatant was removed via aspiration. Sample absorbance was read at a wavelength of 540 […]
analysis via GraphPad Prism v.4.0 software. The IC50 values were determined for each compound were determined from the dose-response curves. […]

ABS parasites = assay: Dual point activity against ABS parasites; type: cell-based, Plasmodium falciparum; settings: single biological repeat
Description: Table S2: Dual point activity of platinum(II) complexes against ABS parasites, early- and late-
stage gametocytes. Values are averaged from technical triplicates performed for a single

PfK1 ABS parasites = type: cell-based, Plasmodium falciparum; settings: for IC50: ABS, SYBR Green I, 96 h, mean ± S.E.; for RI (resistance index): RI = PfK1 IC50/PfNF54 IC50
Procedure: as §1, §2

[3] = system: early-stage gametocytes (NF54-PfS16-GFP-Luc); assay: Luciferase reporter assay, early-stage gametocytes; type: cell-based, Plasmodium falciparum; settings: for EG (% inhibition) 1 µM / EG (% inhibition) 5 µM: single biological repeat; for IC50: early (II/III) gametocytes, luciferase, 48 h, read-out: EG IC50
Procedure: (§3) All the complexes were tested for their early- and late-stage gametocyte activity in a dual-point assay (1 μM and 5 μM). […]
(§4) 1.5.In vitro activity against gametocyte stages
(§5) PfNF54 gametocytes were prepared and isolated according to the method reported by Reader […]
(§6) The in vitro gametocyte activity of the synthesized complexes was determined using a luciferase reporter line-based assay.
(§7) NF54-PfS16-GFP-Luc parasites were used for the stage-specific assessment of gametocytocidal activity. Early-stage gametocyte (stage I-III) experiments were performed on day 5 (representing >90% of early-stage and late-stage gametocyte (stages IV/V) experiments were performed on day 10. In each experiment, assays were set up with the use of 2-3% […]
(§8) Luciferase activity was determined in 30 µL parasite lysates by adding luciferin substrate (30 µL) (Promega Luciferase Assay System) at room temperature. […]

[4] = system: late-stage gametocytes (NF54-PfS16-GFP-Luc); assay: Luciferase reporter assay, late-stage gametocytes; type: cell-based, Plasmodium falciparum; settings: for LG (% inhibition) 1 µM / LG (% inhibition) 5 µM: single biological repeat; for IC50: late (IV/V) gametocytes, luciferase, 48 h, read-out: LG IC50
Procedure: as §3, §4, §5, §6, §7, §8

Structure (SMILES)	Aqueous solubility pH 6.5 [1] [μM]	Epa1 (Cyclic voltammetry)	Epc1 (Cyclic voltammetry)	IC50 (PfNF54 ABS parasites) [µM]	fold decrease in PfNF54 activity compared to C2 (PfNF54 ABS parasites; vs 4,4'-dimethyl complex C2) [fold]	IC50 [2] [µM]	ABS (% inhibition) 1 µM (ABS parasites) [% inhibition]	ABS (% inhibition) 5 µM (ABS parasites) [% inhibition]	IC50 (PfK1 ABS parasites) [µM]	RI (resistance index) (PfK1 ABS parasites)	EG (% inhibition) 1 µM [3] [% inhibition]	EG (% inhibition) 5 µM [3] [% inhibition]	IC50 [3] [µM]	LG (% inhibition) 1 µM [4] [% inhibition]	LG (% inhibition) 5 µM [4] [% inhibition]	IC50 [4] [µM]	fold improvement in PfNF54 activity compared to C2 (PfNF54 ABS parasites; vs 4,4'-dimethyl complex C2)	solubility at 24 h ([1]; phosphate buffer) [µM]
CC(C)(C)c1cc[n+]2c(c1)-c1cc(C(C)(C)C)cc[n+]1[Pt-2]21[O+]=C(c2ccccc2)N=C(N(CCO)CCO)[S]1.[Cl-] [C1]	95	–1.233 V	–1.127 V	–	–	–	–	–	–	–	–	–	–	–	–	–	–	–
Cc1ccc(C2=[O+][Pt-2]3([S]C(N(CCO)CCO)=N2)[n+]2ccc(C(C)(C)C)cc2-c2cc(C(C)(C)C)cc[n+]23)cc1.[Cl-] [C11]	–	–1.239 V	–1.128 V	–	–	–	–	–	–	–	–	–	–	–	–	–	–	–
Cc1cccc(-c2cccc(C)n2)n1.OCCN(CCO)C(=S)N=C([O][Pt+])c1ccccc1.[Cl-] [C15]	–	–	–	2.91	2	5	0.0	89.6	2.76	0.9	2.8	43.9	9.51	54.8	84.0	1.41	–	–
Cc1ccc(-c2ccc(C)cn2)nc1.OCCN(CCO)C(=S)N=C([O][Pt+])c1ccccc1.[Cl-] [C14]	–	–	–	0.241 ± 0.04	–	> 50	–	–	0.886 ± 0.059	3.7	0.0	0.0	–	39.4	56.6	–	5 fold and 6 fold	–
OCCN(CCO)C1=NC(c2ccccc2)=[O+][Pt-2]2([S]1)[n+]1ccc(O)cc1-c1cc(O)cc[n+]12.[Cl-] [C5]	–	–	–	> 5	–	> 50	0.0	11.0	–	–	0.0	0.0	> 20	0.0	0.5	> 20	–	–
COC(=O)[C@H]1[C@H]2C[C@@H]3c4[nH]c5cc(OC)ccc5c4CCN3C[C@H]2C[C@@H](OC(=O)c2cc(OC)c(OC)c(OC)c2)[C@@H]1OC [Reserpine, reference compound]	–	–	–	–	–	–	–	–	–	–	–	–	–	–	–	–	–	< 5
OCCN(CCO)C1=NC(c2ccccc2)=[O+][Pt-2]2([S]1)[n+]1ccc(Cl)cc1-c1cc(Cl)cc[n+]12.[Cl-] [C7]	–	–	–	> 5	–	> 50	2.7	57.3	–	–	2.2	4.1	> 20	0.0	0.4	> 20	–	–
COC(=O)c1cc[n+]2c(c1)-c1cc(C(=O)OC)cc[n+]1[Pt-2]21[O+]=C(c2ccccc2)N=C(N(CCO)CCO)[S]1.[Cl-] [C10]	<5	–	–	> 5	–	> 50	7.11	17.3	–	–	3.7	4.2	> 20	0.6	6.1	> 20	–	–
CNC(=O)c1cc[n+]2c(c1)-c1cc(C(=O)NC)cc[n+]1[Pt-2]21[O+]=C(c2ccccc2)N=C(N(CCO)CCO)[S]1.[Cl-] [C9]	–	–	–	> 5	–	> 50	0.0	24.5	–	–	0.0	4.5	> 20	0.0	2.4	> 20	–	–
CC(C)(C)c1ccnc(-c2cc(C(C)(C)C)ccn2)c1.OCCN(CCO)C(=S)N=C([O][Pt+])c1ccc(Cl)cc1.[Cl-] [C13]	–	–1.233 V	–1.119 V	–	–	–	–	–	–	–	–	–	–	–	–	–	–	–
COc1ccc(C2=[O+][Pt-2]3([S]C(N(CCO)CCO)=N2)[n+]2ccc(C(C)(C)C)cc2-c2cc(C(C)(C)C)cc[n+]23)cc1.[Cl-] [C12]	–	–1.247 V	–1.133 V	–	–	–	–	–	–	–	–	–	–	–	–	–	–	–
